What all share (assay): Serum MIC, broth micro-dilution
Holding throughout (type): cell-based
(Broth dilution looks for growth in wells or tubes with falling amounts of substance.)

Test [1] relates to Acinetobacter baumannii ATCC 17978. To be noted: Acinetobacter baumannii, ATCC17978. In short, it runs like this: (§1)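 Plates held at 35 °C for 22 h after adding bacteria to a final OD600 of 0.0005. Medium was a 1:1 mix of mouse serum and cation-adjusted Mueller Hinton II broth. Ten two-fold compound dilutions began at 64, 4, 0.5 or 0.13 μg/mL, per CLSI microdilution.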
Test [2] has as its system Klebsiella pneumoniae ATCC 700603. To be noted: Klebsiella pneumoniae, ATCC700603. In outline: as §1
Test [3] deals with Pseudomonas aeruginosa PA01. The note with it: Pseudomonas aeruginosa, PA01, read-out: P. aeruginosa 01 Serum MIC. In outline:
as §1

In test [4] the test system is Escherichia coli strain ATCC 25922. The note with it: Escherichia coli, ATCC25922, read-out: E. coli 25922 Serum MIC. In short, it runs like this:
as §1

The mark [5] stands for this setting: 50% v/v mouse serum, compounds of Table 1, Table 7, read-out: A. baumanii 17978 Serum MIC.
Where [6] appears, read: 50% v/v mouse serum, compounds of Table 1, Table 7, read-out: K. pneumoniae 700603 Serum MIC.
The mark [7] stands for this setting: 50% v/v mouse serum, compounds of Table 1, Table 7.
[8] abbreviates: 50% v/v mouse serum in Mueller Hinton II cation adjusted Broth, 35° C., 22 hours, Table 4, read-out: A. baumanii 17978 Serum MIC.
Setting [9] is: 50% v/v mouse serum in Mueller Hinton II cation adjusted Broth, 35° C., 22 hours, Table 5, read-out: Acinetobacter baumanii 17978 Serum MIC.
[10] abbreviates: 50% v/v mouse serum in Mueller Hinton II cation adjusted Broth, 35° C., 22 hours, Table 4, read-out: K pneumoniae 700603 Serum MIC.
Where [11] appears, read: 50% v/v mouse serum in Mueller Hinton II cation adjusted Broth, 35° C., 22 hours, Table 4.

Broadly, the MIC is the lowest concentration found to suppress growth.

Structures are written as SMILES. ≈ marks a conversion by molar mass, not a printed value. Where two headings read alike, the source gives them in different places.

For the molecule `Cc1nc(-c2ccc(C(C)(C)C)cc2)nc(C)c1C(=O)N[C@@H](CCN)C(=O)N(C)[C@@H]1C(=O)N[C@@H](C)C(=O)N[C@H](C(=O)O)Cc2ccc(OCCN)c(c2)-c2cc1ccc2OCCN` (racemic) [Example 645], the MIC in test [1] (setting [5]) came to 67 µM (≈ 58 µg/mL); in test [2] (setting [6]), 0.55 µM (≈ 0.476 µg/mL); in test [3] (setting [7]) it was 67 µM (≈ 58 µg/mL); in test [4] (setting [7]), 0.53 µM (≈ 0.459 µg/mL).

On to `Cc1nc(N2CCC(C(C)(C)C)CC2)nc(N)c1C(=O)N[C@@H](CCN)C(=O)N(C)[C@@H]1C(=O)N[C@@H](C)C(=O)N[C@H](C(=O)O)Cc2ccc(OC[C@H](O)CN)c(c2)-c2cc1cc(OC[C@H](O)CN)c2O` [Example 25, (8S,11S,14S)-18-hydroxy-11-methyl-14-[methyl-[(2S)-4-amino-2-[[4-amino-2-(4-tert-butyl-1-piperidyl)-6-methyl-pyrimidine-5-carbonyl]amino]-butanoyl]amino]-10,13-dioxo-3,17-bis[(2R)-3-amino-2-hydroxy-propoxy]-9,12-diazatricyclo-[13.3.1.12,6]icosa-1(18),2(20),3,5,15(19), 16-hexaene-8-carboxylic acid], for which the MIC in test [1] (setting [8]) was 16 µM (≈ 15.2 µg/mL); in test [1] (setting [9]) it was 16 µM (≈ 15.2 µg/mL); in test [2] (setting [10]) it was 0.5 µM (≈ 0.475 µg/mL); in test [3] (setting [11]), 64 µM (≈ 60.8 µg/mL); in test [4] (setting [11]), 1 µM (≈ 0.95 µg/mL).

`Cc1nc(-c2ccc(C(C)(C)C)cc2)nc(C)c1C(=O)N[C@@H](CCN)C(=O)N(C)[C@@H]1C(=O)N[C@@H](C)C(=O)N[C@H](C(=O)O)Cc2ccc(O)c(c2)-c2cc1ccc2OCCN` (racemic) [Example 646]: the MIC in test [1] (setting [5]) was 69 µM (≈ 56.8 µg/mL); in test [2] (setting [6]), 0.58 µM (≈ 0.477 µg/mL); in test [3] (setting [7]), 69 µM (≈ 56.8 µg/mL); in test [4] (setting [7]) it was 0.55 µM (≈ 0.453 µg/mL).

As to `Cc1nc(-c2ccc(C(C)(C)C)cc2CO)nc(N)c1C(=O)N[C@@H](CNS(N)(=O)=O)C(=O)N(C)[C@@H]1C(=O)N[C@@H](C)C(=O)N[C@H](C(=O)O)Cc2ccc(OC[C@H](O)CN)c(c2)-c2cc1cc(OC[C@H](O)CN)c2O` [Example 58, (8S,11S,14S)-14-[[(2S)-2-[[4-amino-2-[4-tert-butyl-2-(hydroxymethyl)-phenyl]-6-methyl-pyrimidine-5-carbonyl]amino]-3-(sulfamoylamino)-propanoyl]-methyl-amino]-3,17-bis[(2R)-3-amino-2-hydroxy-propoxy]-18-hydroxy-11-methyl-10,13-dioxo-9,12-diazatricyclo-[13.3.1.12,6]icosa-1(18),2(20),3,5,15(19), 16-hexaene-8-carboxylic acid], the minimum inhibitory concentration (MIC) came to 48 µM (≈ 49.8 µg/mL) in test [1] (setting [8]); 48 µM (≈ 49.8 µg/mL) in test [1] (setting [9]); 4 µM (≈ 4.15 µg/mL) in test [2] (setting [10]); 16 µM (≈ 16.6 µg/mL) in test [3] (setting [11]); 4 µM (≈ 4.15 µg/mL) in test [4] (setting [11]).

For the molecule `Cc1nc(-c2ccc(C(C)(C)C)cc2C#N)nc(N)c1C(=O)N[C@@H](CNS(N)(=O)=O)C(=O)N(C)[C@@H]1C(=O)N[C@@H](C)C(=O)N[C@H](C(=O)O)Cc2ccc(OC[C@H](O)CN)c(c2)-c2cc1cc(OC[C@H](O)CN)c2O` [Example 39, (8S,11S,14S)-14-[[(2S)-2-[[4-amino-2-(4-tert-butyl-2-cyano-phenyl)-6-methyl-pyrimidine-5-carbonyl]amino]-3-(sulfamoylamino)-propanoyl]-methyl-amino]-3,17-bis[(2R)-3-amino-2-hydroxy-propoxy]-18-hydroxy-11-methyl-10,13-dioxo-9,12-diazatri-cyclo[13.3.1.12,6]icosa-1(18),2(20),3,5,15(19), 16-hexaene-8-carboxylic acid], the MIC in test [1] (setting [8]) turned out to be 24 µM (≈ 24.8 µg/mL); in test [1] (setting [9]) it was 24 µM (≈ 24.8 µg/mL); in test [2] (setting [10]), 2 µM (≈ 2.07 µg/mL); in test [3] (setting [11]), 8 µM (≈ 8.27 µg/mL); in test [4] (setting [11]), 1.5 µM (≈ 1.55 µg/mL).

Turning to `C[C@@H]1NC(=O)[C@@H](N(C)C(=O)[C@H](CNS(N)(=O)=O)NC(=O)c2cnn(-c3ccc(OCCC(C)(C)C)cc3)c(=O)c2)c2cc(OC[C@H](O)CN)c(O)c(c2)-c2cc(ccc2OC[C@H](O)CN)C[C@@H](C(=O)O)NC1=O` [Example 4, (8S,11S,14S)-18-hydroxy-11-methyl-14-[methyl-[(2S)-2-[[1-[4-(3,3-dimethyl-butoxy)phenyl]-6-oxo-pyridazine-4-carbonyl]amino]-3-(sulfamoylamino)-propanoyl]amino]-10,13-dioxo-3,17-bis[(2R)-3-amino-2-hydroxy-propoxy]-9,12-diazatricyclo-[13.3.1.12,6]icosa-1(18),2(20),3,5,15(19), 16-hexaene-8-carboxylic acid], the MIC is 24 µM (≈ 24.9 µg/mL) in test [1] (setting [8]); 24 µM (≈ 24.9 µg/mL) in test [1] (setting [9]); 0.75 µM (≈ 0.779 µg/mL) in test [2] (setting [10]); 12 µM (≈ 12.5 µg/mL) in test [3] (setting [11]); 1 µM (≈ 1.04 µg/mL) in test [4] (setting [11]).

With `COc1c(OC[C@H](O)CN)cc2cc1-c1cc(ccc1OC[C@H](O)CN)C[C@@H](C(=O)O)NC(=O)[C@H](C)NC(=O)[C@H]2N(C)C(=O)[C@H](CCN)NC(=O)c1cnc(-c2ccc(C3(C)CC3)cc2)nc1C` [Example 74, (8S,11S,14S)-3,17-bis[(2R)-3-amino-2-hydroxy-propoxy]-14-[[(2S)-4-amino-2-[[4-methyl-2-[4-(1-methylcyclopropyl)-phenyl]pyrimidine-5-carbonyl]amino]-butanoyl]-methyl-amino]-18-methoxy-11-methyl-10,13-dioxo-9,12-diazatri-cyclo[13.3.1.12,6]icosa-1(18),2(20),3,5,15(19), 16-hexaene-8-carboxylic acid], the MIC in test [1] (setting [8]) came out at 32 µM (≈ 30.1 µg/mL); in test [1] (setting [9]), 32 µM (≈ 30.1 µg/mL); in test [2] (setting [10]) it was 0.5 µM (≈ 0.47 µg/mL); in test [3] (setting [11]) it was 64 µM (≈ 60.2 µg/mL); in test [4] (setting [11]) it was 0.5 µM (≈ 0.47 µg/mL).

With `CCC1(Oc2ccc(-c3nc(C)c(C(=O)N[C@@H](CCN)C(=O)N(C)[C@@H]4C(=O)N[C@@H](C)C(=O)N[C@H](C(=O)O)Cc5ccc(OCCN)c(c5)-c5cc4ccc5OCCN)c(C)n3)cc2)CC1` (racemic) [Example 639], the MIC in test [1] (setting [5]) worked out at 64 µM (≈ 57.2 µg/mL); in test [2] (setting [6]), 1 µM (≈ 0.894 µg/mL); in test [3] (setting [7]), 64 µM (≈ 57.2 µg/mL); in test [4] (setting [7]), 0.5 µM (≈ 0.447 µg/mL).

For the molecule `CCC(C)(C)c1ccc(-c2nc(C)c(C(=O)N[C@@H](CNS(N)(=O)=O)C(=O)N(C)[C@@H]3C(=O)N[C@@H](C)C(=O)N[C@H](C(=O)O)Cc4ccc(OC[C@H](O)CN)c(c4)-c4cc3cc(OC[C@H](O)CN)c4O)c(N)n2)cc1` [Example 45, (8S,11S,14S)-14-[[(2S)-2-[[4-amino-2-[4-(1,1-dimethyl-propyl)phenyl]-6-methyl-pyrimidine-5-carbonyl]amino]-3-(sulfamoylamino)-propanoyl]-methyl-amino]-3,17-bis[(2R)-3-amino-2-hydroxy-propoxy]-18-hydroxy-11-methyl-10,13-dioxo-9,12-diazatri-cyclo[13.3.1.12,6]icosa-1(18),2(20),3,5,15(19), 16-hexaene-8-carboxylic acid], the MIC was determined as 8 µM (≈ 8.18 µg/mL) in test [1] (setting [8]); 8 µM (≈ 8.18 µg/mL) in test [1] (setting [9]); 0.5 µM (≈ 0.511 µg/mL) in test [2] (setting [10]); 3 µM (≈ 3.07 µg/mL) in test [3] (setting [11]); 0.5 µM (≈ 0.511 µg/mL) in test [4] (setting [11]).

Consider `Cc1nc(-c2ccc(C(C)(C)C)cc2)nc(C)c1C(=O)N[C@@H](CCN)C(=O)N(C)[C@@H]1C(=O)N[C@@H](C)C(=O)N[C@H](C(=O)NCC#N)Cc2ccc(O)c(c2)-c2cc1cc(OCCN)c2OCCN` [Example 633], for which the MIC was found to be 5 µM (≈ 4.6 µg/mL) in test [1] (setting [5]), 0.063 µM (≈ 0.058 µg/mL) in test [2] (setting [6]), 4 µM (≈ 3.68 µg/mL) in test [3] (setting [7]) and 0.063 µM (≈ 0.058 µg/mL) in test [4] (setting [7]).

Regarding `Cc1nc(-c2ccc(C3(C)CC3)cc2)ncc1C(=O)N[C@@H](CNS(N)(=O)=O)C(=O)N(C)[C@@H]1C(=O)N[C@@H](C)C(=O)N[C@H](C(=O)O)Cc2ccc(OC[C@H](O)CN)c(c2)-c2cc1cc(OC[C@H](O)CN)c2O` [Example 5, (8S,11S,14S)-18-hydroxy-11-methyl-14-[methyl-[(2S)-2-[[4-methyl-2-[4-(1-methylcyclopropyl)-phenyl]pyrimidine-5-carbonyl]amino]-3-(sulfamoylamino)-propanoyl]amino]-10,13-dioxo-3,17-bis[(2R)-3-amino-2-hydroxy-propoxy]-9,12-diazatricyclo-[13.3.1.12,6]icosa-1(18),2(20),3,5,15(19), 16-hexaene-8-carboxylic acid], the MIC stood at 12 µM (≈ 11.9 µg/mL) in test [1] (setting [8]); 12 µM (≈ 11.9 µg/mL) in test [1] (setting [9]); 0.88 µM (≈ 0.872 µg/mL) in test [2] (setting [10]); 20 µM (≈ 19.8 µg/mL) in test [3] (setting [11]); 0.63 µM (≈ 0.624 µg/mL) in test [4] (setting [11]).

As for `C[C@@H]1NC(=O)[C@@H](N(C)C(=O)[C@H](CNS(N)(=O)=O)NC(=O)c2c(N)cc(-c3ccc(C(C)(C)C)cc3)nc2Cl)c2cc(OC[C@H](O)CN)c(O)c(c2)-c2cc(ccc2OC[C@H](O)CN)C[C@@H](C(=O)O)NC1=O` [Example 37, (8S,11S,14S)-14-[[(2S)-2-[[4-amino-6-(4-tert-butylphenyl)-2-chloro-pyridine-3-carbonyl]amino]-3-(sulfamoylamino)-propanoyl]-methyl-amino]-3,17-bis[(2R)-3-amino-2-hydroxy-propoxy]-18-hydroxy-11-methyl-10,13-dioxo-9,12-diazatri-cyclo[13.3.1.12,6]icosa-1(18),2(20),3,5,15(19), 16-hexaene-8-carboxylic acid], the MIC in test [1] (setting [8]) came out at 8 µM (≈ 8.22 µg/mL); in test [1] (setting [9]), 8 µM (≈ 8.22 µg/mL); in test [2] (setting [10]) it was 0.5 µM (≈ 0.514 µg/mL); in test [3] (setting [11]) it was 4 µM (≈ 4.11 µg/mL); in test [4] (setting [11]), 0.5 µM (≈ 0.514 µg/mL).

The values above are taken from patent publication US11208387B2, “Macrocyclic broad spectrum antibiotics” (Genentech, Inc., priority 2019, dated 2021).
